# Measured values from patent publication US20230220353A1, “IN VITRO LIVER ORGANOIDS AND MINI-BILE DUCT MODELS OF BILIARY ARTRESIA AND APPLICATIONS THEREOF” (priority 2022, published 2023).
# Key:
# human liver organoids [1] = assay: Growth and morphology of human liver organoids (Hematoxylin and Eosin staining); format: cell-based; settings: 2 μg/ml biliatresone
# Experimental: Briefly, liver biopsy was minced and digested in gentle MACS-C Tube with 5 ml digestion medium (Multi Tissue Dissociation Kit 1), filtered (70 μm and 30 μm) and sorted by human CD326 (EpCAM) magnetic beads. CD326 positive cells were mixed with Matrigel (50,000 cells in 50 μl) and added to each well of a four-well culture plate (Nunc™ 4-Well Dishes). After Matrigel solidification, organoid medium (Advanced DMEM/F12 supplemented with 1% Penicillin/Streptomycin (Invitrogen), 250 ng/ml Amphotericin B (GIBCO), […], 1% N2 and 1% B27(GIBCO), 1.25 mM N-Acetylcysteine (Sigma), 10 nM gastrin (Sigma), and the growth factors: 50 ng/ml mEGF (Peprotech), 100 ng/ml FGF10 (Peprotech), 25 ng/ml HGF (Peprotech), 10 mM Nicotinamide (Sigma), 5 μM A83.01 (Tocris), and 10 μM FSK (Tocris), 25 ng/ml Noggin (Peprotech), 500 ng/ml R-Spondin 1 (R&D), 100 ng/ml Wnt3a (R&D), 10 μM Y27632 (Sigma Aldrich)) was added for organoid culturing. The medium was changed every three days. After culturing for 5 days, biliatresone solution (2867, Axon MEDCHEM; 2 μg/ml in DMSO) was added into the medium and the organoids were cultured for different periods for subsequent analysis. For the untreated control culture, DMSO (same volume as biliatresone) was added to the culture. FIG. 1 is a schematic diagram of the generation of biliatresone treated human liver organoids. […]
# human liver organoids [2] = assay: Immunostaining of human liver organoids for differentiation, polarity, cytoskeleton and β-amyloid markers; format: cell-based
# Experimental: Hepatocytic differentiation in human organoids was assessed by immuno-fluorescence for hepatocyte maker (HNF4A). Organoids in the Matrigel were washed with PBS (phosphate-buffered saline) before being fixed with 4% paraformaldehyde at room temperature for 20 minutes. The organoids were permeabilized with Triton X-100 (0.5% in PBS) for 20 minutes and blocked with 3% bovine serum albumin (BSA, Sigma-Aldrich) in PBS with 0.05% Triton X-100 (PBST) for 30 minutes at room temperature. The organoids were then incubated in primary antibodies (diluted in PBST with 3% BSA) at 4° C. overnight. After PBST washes (5 minutes for 3 times), organoids were incubated in secondary antibodies (diluted in PBST with 3% BSA) for 2 hours at room temperature. Afterward, the organoids were rinsed with PBS 3 times and incubated with DAPI solution for 30 minutes at room temperature. The organoids were rinsed with PBS (5 minutes for 3 times). Primary and secondary antibodies used in this examples were anti-ZO-1 (1:50, RA231621, Thermo Fisher), anti-CK19 (1:200, ab220193, Abcam), anti-F-actin (1:500, A22287, Thermo Fisher), anti-beta-amyloid (1:200, SIG-39220, 4G8, BioLegend), anti-HNF4A (1:50, ab201460, Abcam), Alexa Fluor 488 (1:500, A11008, Invitrogen) and Alexa Fluor 594 (1:500, A11032, Invitrogen).
# (§1) Organoids were imaged on a laser confocal microscopy (Leica) equipped with a 20× dry objective and a 63× oil-immersion objective. Images were analyzed using ImageJ software. For quantification of the number of cilia from each group, the organoids were imaged using confocal microscopy (0.8 μm Z-axis interval, 40 μm in thickness). Maximum intensity projection was performed for visualization of the cilia in the organoids. FIG. 3A are representative images of control and day-2 biliatresone-treated human liver organoids stained for HNF4A (green). Nuclei were stained with DAPI (blue). The percentage of HNF4A positive cells in control and day-2 biliatresone-treated organoids were determined by counting the total number of cells and HNF4A+ cells of the organoids. Number of organoids counted in each group=3; *, p<0.05, student's t-test; error bars indicated the standard deviation.
# To test if biliatresone induces apical-basal polarity defects in human organoids, the control group and biliatresone-treated organoids were stained with anti-ZO-1 antibody. FIG. 4 depicts the result of immunostaining of control and day-2 biliatresone-treated human liver organoids for ZO-1 (green) and CK19 (red). Nuclei were stained with DAPI (blue).
# To investigate if biliatresone also induces cytoskeleton defects and Aβ accumulation in human organoids, Immunostaining was carried out for the control and day-2 biliatresone-treated human liver organoids for cytoskeleton protein F-actin (green) and β-amyloid (red). Nuclei were stained with DAPI (blue).
# The percentages of β-amyloid positive cells in control and day-2 biliatresone-treated organoids were determined by counting total number of cells and β-amyloid+ cells of the organoids. Number of organoids counted in each group=3; *, p<0.05, student's t-test; error bars indicated the standard deviation.
# MDR1 = MDR1 (Homo sapiens, UniProt P08183); assay: MDR1 activity assay (MDR1-mediated Rhodamine 123 transport assay); settings: day-2 biliatresone-treated organoids, Rhodamine 123 100 μM, 30 minutes
# Experimental: A MDR1 activity assay (MDR1-mediated Rhodamine 123 (R123) transport assay) was then performed to investigate the defective cholangiocyte differentiation of biliatresone-treated organoids.
# Afterward, the liver organoids were washed with PBS and incubated in culture medium containing Rhodamine 123 (100 μM) at 37° C. for 30 minutes. After washing with PBS, the fluorescence of liver organoids was then visualized by laser confocal microscopy (Leica) immediately (as 0 minutes) and after 30 minutes incubation in culture medium.
# human liver organoids [3] = assay: FITC-labeled dextran diffusion test (tight junction barrier integrity); format: cell-based; settings: day-2 treated organoids, after 10 minutes of incubation; not observed in control
# Experimental: In order to determine the integrity of liver organoids, a FITC-labeled dextran diffusion test was carried out to investigate if biliatresone-treated organoids has defects in the tight junction barrier for solutes. […] The fluorescent intensity of liver organoids was imaged using laser confocal microscopy at 10 and 30 minutes.
# human liver organoids [4] = assay: Ciliated cholangiocyte count (pericentrin / acetylated α-tubulin immunostaining); format: cell-based
# Experimental: as §1
# To investigate if biliatresone disturbed ciliogenesis in human organoids, control organoids and biliatresone-treated organoids were immuno-stained for ciliary proteins Pericentrin (PCNT) and alpha-tubulin. […] The percentages of ciliated cells in control and biliatresone-treated organoids were determined by counting total number of cells and ciliated cells of the organoids. Number of organoids counted in each group=3; *, p<0.05, student's t-test; error bars indicated the standard deviation.
# human cholangiocytes = assay: Cilia mechano-sensory calcium influx assay in mini-bile duct under shear flow (Calbryte 520); format: cell-based; settings: 2 μg/ml for 5 days, shear flow 1 dyne/cm2, vs untreated cholangiocytes
# Experimental: The organoids were released from the Matrigel by cold Advanced DMEM. The organoid pellets were obtained by centrifugation at 300 g, 3 minutes. Afterwards, the organoids were digested for 5 minutes at 37° C. via 1 mL of TrypLE Express Enzyme (1×). About 5,000 of organoid cells were seeded into each channel of the Matrigel coated 6-channel ibidi microfluidic chips (80607, ibidi), and the microfluidic chips were incubated at 37° C. in incubator. At day 3, monoloayer of cholangiocytes was formed representing the mini-bile duct with the luminal side facing the medium and the basal side facing the bottom of the microfluidic chips. To prepare for the calcium influx measurement, cholangiocyte monolayer was first incubated with 5 μM of Calbryte 520-AM (ATT) (prepared in Hanks' balanced salt solution, HBSS) for 1 hour at 37° C. Then, the cholangiocytes were washed with HBSS (5 minutes for 3 times). […] Time-lapse images were acquired for green fluorescence for 20 seconds (1-second intervals and 10 milliseconds exposure time) using Nikon Ti2e microscope (Nikon, Japan). […]
# On day 3 post confluence, cholangiocytes were incubated with 5 μM of Calbryte 520-AM (ATT) (prepared in Hanks' balanced salt solution, HBSS) for 1 hour at 37° C. […] Time-lapse images were acquired for green fluorescence for 20 seconds (1-second intervals and 10 milliseconds exposure time) using Nikon Ti2e microscope (Nikon, Japan). […]
# SOX17 = SOX17 mRNA expression by real-time PCR normalized to GAPDH; format: cell-based, human; settings: day-2 treated organoids vs control
# Source text: Gene expressions in liver ductal organoids with or without biliatresone treatment for 2 day and 5 days were investigated. mRNA expression levels were characterized by real-time PCR for SOX17 normalized to GAPDH.
# GSH = GSH level in liver organoids; format: cell-based, human
# Experimental: GSH levels were measured in liver organoids from 0 to 48 hours without (Ctrl) or with biliatresone. Data was obtained from 3 wells in each group; *, p<0.05, student's t-test; error bars indicated the standard deviation.
# [5] = day-2 treated organoids vs control
# Sequence of MDR1 (P08183 whole entry): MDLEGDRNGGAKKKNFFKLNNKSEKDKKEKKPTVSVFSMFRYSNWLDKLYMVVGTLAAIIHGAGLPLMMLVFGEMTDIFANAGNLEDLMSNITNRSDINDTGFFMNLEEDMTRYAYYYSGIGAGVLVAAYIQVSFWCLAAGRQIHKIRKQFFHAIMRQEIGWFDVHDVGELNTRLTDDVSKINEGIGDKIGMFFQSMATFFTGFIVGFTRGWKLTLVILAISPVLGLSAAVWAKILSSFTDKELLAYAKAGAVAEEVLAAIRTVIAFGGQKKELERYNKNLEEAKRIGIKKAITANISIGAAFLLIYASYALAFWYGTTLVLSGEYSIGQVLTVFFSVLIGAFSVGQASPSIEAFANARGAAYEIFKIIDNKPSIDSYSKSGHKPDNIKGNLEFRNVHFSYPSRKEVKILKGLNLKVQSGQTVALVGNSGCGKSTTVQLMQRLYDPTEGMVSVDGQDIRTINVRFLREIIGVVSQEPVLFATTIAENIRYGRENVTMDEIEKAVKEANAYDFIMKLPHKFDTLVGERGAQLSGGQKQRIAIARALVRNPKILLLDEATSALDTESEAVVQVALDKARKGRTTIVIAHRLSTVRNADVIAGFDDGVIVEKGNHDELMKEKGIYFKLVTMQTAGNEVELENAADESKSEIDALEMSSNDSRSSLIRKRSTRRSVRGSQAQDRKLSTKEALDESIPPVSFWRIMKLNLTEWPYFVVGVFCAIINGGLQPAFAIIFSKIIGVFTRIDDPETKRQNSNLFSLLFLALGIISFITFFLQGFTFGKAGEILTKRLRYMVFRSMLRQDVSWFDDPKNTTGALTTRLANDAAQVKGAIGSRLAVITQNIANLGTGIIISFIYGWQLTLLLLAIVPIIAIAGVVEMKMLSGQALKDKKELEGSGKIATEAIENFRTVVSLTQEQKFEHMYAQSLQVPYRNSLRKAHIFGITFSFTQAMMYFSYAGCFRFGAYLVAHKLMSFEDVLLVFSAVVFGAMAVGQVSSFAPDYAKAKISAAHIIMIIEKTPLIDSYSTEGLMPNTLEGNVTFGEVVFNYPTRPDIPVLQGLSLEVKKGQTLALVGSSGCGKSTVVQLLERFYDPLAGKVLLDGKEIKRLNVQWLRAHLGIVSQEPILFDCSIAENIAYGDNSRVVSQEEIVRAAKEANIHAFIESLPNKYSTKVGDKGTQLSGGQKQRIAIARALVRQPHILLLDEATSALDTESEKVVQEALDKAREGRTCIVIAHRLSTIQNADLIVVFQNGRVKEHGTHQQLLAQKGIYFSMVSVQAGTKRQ
structure (smiles),measurement,setting,value
"C=C(C(=O)c1c(OC)cc2c(c1OC)OCO2)c1ccccc1O [biliatresone, Biliatresone]",organoid morphology,"human liver organoids [1]; day 5, vs DMSO control",not well-expanded
same,organoid diameter,"human liver organoids [1]; day 5, control organoids 25-100 μm",5-20 μm
same,percentage of Aβ positive cells,"human liver organoids [2]; day-2 treated culture vs control culture (no Aβ positive cells in control), p<0.05",significantly higher
same,ZO-1 immuno-reactivity,human liver organoids [2]; [5],markedly reduced
same,expression of cholangiocyte MDR1,human liver organoids [2]; [5],drastically reduced
same,percentage of HNF4A+ cells in organoids,"human liver organoids [2]; day-2 treated organoids, 2 μg/ml, Mean±SD, n=3, control 14.9±2%",57.3±8%
same,F-actin localization,"human liver organoids [2]; day-2 treated organoids, control: apical side only",both the apical and the basal sides
same,expression of cholangiocyte marker CK19,human liver organoids [2]; treated organoids vs control,drastically reduced
same,R123 transport across the organoid membrane,MDR1,very inefficient
same,FITC-dextran (10 kDa) localization,human liver organoids [3],localize in the lumen
same,percentage of ciliated cells,"human liver organoids [4]; day 1 of treatment, Mean±SD, control 10.7±5%",4.2±2%
same,percentage of ciliated cells,human liver organoids [4]; day 3 of treatment,0%
same,extent of calcium influx,human cholangiocytes,significantly reduced
same,percentage of evoked cells after perfusion stimulation,human cholangiocytes,significantly reduced
same,SOX17 expression,SOX17,small but significant drop
same,GSH level,"GSH; 6, 24 and 48 hours of treatment",restored
same,GSH level,GSH; 3 hours of treatment vs control,small but significant drop
